Holding throughout (experiment): growth of human tumour cells (NCI), 48 h
For assay [1], the system named is KM12 colon.
The subject of assay [2] is SK-MEL-5 melanoma.
Assay [3] concerns SF-268 CNS.
Assay [4] deals with SW-620 colon.
For assay [5], the system named is NCI/ADR-RES ovarian.
Assay [6] relates to RPMI-8226 leukemia.
Assay [7] deals with MOLT-4 leukemia.
For assay [8], the system named is HOP-92 NSCLC.
Assay [9] deals with A549 NSCLC.
In assay [10] the test system is MDA-N.

Each structure is given as a SMILES string.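 Test compounds were applied to cells in 96-well plates for 48 hours at 5 doses. Here, GI50 denotes the concentration required for 50% inhibition of growth. At the TGI there is no net growth.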

14 compounds from PubChem BioAssay (NCI) can be followed below.

Consider `Oc1ccc(-c2nnc3sc(-c4ccc(F)cc4)nn23)cc1`, for which the GI50 is greater than 100 µM in assay [1]; 70.4 µM in assay [2]; 23 µM in [3]; greater than 100 µM in assay [4]; 43.6 µM in assay [5]; 39 µM in assay [6]. In addition, the GI50 in [7] was 33.6 µM; in assay [8], 46.1 µM; in assay [9], greater than 100 µM. In addition, the TGI is greater than 100 µM in assay [1]; greater than 100 µM in assay [2]; 62.6 µM in assay [3]; greater than 100 µM in [4]; greater than 100 µM in [5]; greater than 100 µM in assay [6]. Moreover, the TGI in assay [7], in [8] and in assay [9] was greater than 100 µM each time.

Take `COc1ccc(Nc2nc3ccc(C(F)(F)F)cc3nc2C(=O)O)cc1OC`: the TGI is 33.7 µM in assay [1]; 48.3 µM in assay [2]; greater than 100 µM in assay [3]; greater than 100 µM in [4]; 57.5 µM in assay [5]; greater than 100 µM in assay [10]. Further, the TGI in [7] is 43.5 µM.

As for `COc1cc(/C=C/C(=O)O)ccc1C(=O)O/C=C/c1ccccc1`, the TGI in [1], in [2], in assay [3], in assay [4], in assay [5] and in [6] was greater than 100 µM in each case. The TGI in assay [7], in [8] and in assay [9] was greater than 100 µM throughout.

As to `CCN(CC)CCOC(NC(C)=O)(c1ccccc1)c1ccccc1`, the TGI in [1], in assay [2], in [3], in [4], in assay [5] and in [6] was greater than 100 µM each time. The TGI in assay [7], in [8] and in [9] was greater than 100 µM throughout.

With `CCC[C@H]1C(=O)N=C(N)N1C(=O)OCc1ccccc1`, the TGI in assay [1], in assay [2], in assay [3], in assay [4], in [5] and in assay [10] was greater than 100 µM throughout. Moreover, the TGI in [6] and in assay [7] was greater than 100 µM throughout.

On to `COC(=O)NN(C(=O)OC)c1c(-c2ccccc2)nc(SC)n1N`, for which the TGI in assay [1], in assay [2], in [3], in assay [4], in [5] and in [10] was greater than 100 µM throughout. Besides, the TGI in assay [6], in [7] and in assay [9] was greater than 100 µM in each case.

Turning to `COc1ccc(N[C@H](CSc2ccc(C)cc2)c2ccc(F)cc2)cc1`, the TGI in assay [1], in assay [2], in assay [3], in assay [4], in [5] and in [10] was greater than 100 µM throughout. Moreover, the TGI in assay [6], in assay [7] and in assay [9] was greater than 100 µM in each case.

Regarding `COc1cccc(-c2cc(=O)c3c(C)cc(C)nc3[nH]2)c1`, the TGI in [1] was 16.6 µM; in assay [2], 14.8 µM; in assay [3], 36.2 µM; in [4] it was greater than 100 µM; in assay [5] it was greater than 100 µM; in assay [6], 6.09 µM. In addition, the TGI in [7] is greater than 71.9 µM; in [8] it was greater than 85 µM; in [9], greater than 100 µM.

For `CCC12C[N+]3([O-])CCc4c([nH]c5ccccc45)C(C(=O)OC)(c4cc5c(cc4OC)N(C)C4C(O)(C(=O)OC)C(OC(C)=O)C6(CC)C=CCN7CCC54C76)CC(C3)C1O2` (configuration not stated), the TGI in assay [1] worked out at 15.9 µM; in [2] it was 12 µM; in assay [3], 28.8 µM; in assay [4], 20.4 µM; in [6], 1.43 µM; in assay [7], 3.44 µM. Further, the values for the TGI in assay [8] and in assay [9] were 21.3 µM and 29.9 µM, respectively.

With `c1ccc2c(c1)[nH]c1nc3cc(-c4ccc5nc6c(nc5c4)[nH]c4ccccc46)ccc3nc12`, the TGI in assay [1], in assay [2], in [3], in [4], in assay [10] and in assay [6] was greater than 100 µM throughout. For the same compound, the TGI in [7] is greater than 100 µM; in assay [8], greater than 21.5 µM; in assay [9], greater than 100 µM.

As for `CCCCN1CCN(c2ccc3nc(-c4ccc5nc(-c6ccc(C(F)(F)F)cc6)[nH]c5c4)[nH]c3c2)CC1`, the GI50 is 1.12 µM in [1]; 1.6 µM in [2]; 1.74 µM in assay [3]; 0.297 µM in assay [4]; 3.24 µM in assay [5]; 0.201 µM in [6]. Further, the GI50 was 1.07 µM in assay [7], 1.19 µM in assay [8] and 0.926 µM in assay [9]. Further, the TGI in assay [1] is 2.68 µM; in assay [2], 3.09 µM; in assay [3], 3.43 µM; in assay [4], 0.841 µM; in [5], greater than 75.9 µM; in assay [6] it was 0.475 µM. Also, the TGI in assay [7] was 2.59 µM; in assay [8], 2.64 µM; in assay [9], 2.24 µM.

On to `CCN(CC)CCNc1ccc2nnn3c4ccc(OC)cc4c(=O)c1c23`, for which the TGI turned out to be 13.9 µM in assay [1]; 25.5 µM in assay [2]; 20.6 µM in assay [3]; 17.1 µM in assay [4]; 14.9 µM in assay [6]; 13.1 µM in assay [7]. In addition, the TGI in assay [8] stood at 19.5 µM; in assay [9], 19.4 µM.

Consider `Nc1c2ccccc2nc2c1ccc1ncccc12`, for which the TGI was 52.6 µM in assay [1]; greater than 100 µM in assay [2]; greater than 100 µM in assay [4]; 89.1 µM in assay [5]; 74.7 µM in assay [10]; greater than 100 µM in [7]. The TGI in assay [8] and in assay [9] was greater than 100 µM each time.

`COc1cc(OCc2ccc3oc(=O)c(-c4ccccc4)nc3c2)cc(OC)c1OC`: the TGI in assay [2], in assay [3], in assay [4], in assay [5], in assay [10] and in assay [6] was greater than 100 µM each time. For the same compound, the TGI in assay [7] and in assay [9] was greater than 100 µM throughout.
